Values quoted from earlier work, collected in patent US8153594B2, “Tacrolimus standard and methods of using same” (Siemens Healthcare Diagnostics Inc., priority 2006, dated 2012).

- Solubility in water: insoluble in water
Compound: C=CC[C@@H]1/C=C(\C)C[C@H](C)C[C@H](OC)[C@H]2O[C@@](O)(C(=O)C(=O)N3CCCC[C@H]3C(=O)O[C@H](/C(C)=C/[C@@H]3CC[C@@H](O)[C@H](OC)C3)[C@H](C)[C@@H](O)CC1=O)[C@H](C)C[C@@H]2OC [tacrolimus, Tacrolimus]
